Read-outs that look alike come from different tables or passages of the source.
Columns and labels:
[1] = test system: plasma ACTH in adrenalectomized (ADX) rats; assay: Lowering of plasma ACTH in adrenalectomized rats; assay type: in vivo, rat; conditions: 30 mg/kg single oral dose, FIG. 2
Text: Adrenalectomy eliminates circulating corticosterone (the primary glucocorticoid) in rats and removes the negative feedback control of the HPA axis at both the hypothalamic and pituitary (corticotroph cells) levels and thus chronically elevates plasma ACTH (see, e.g., Mims et al., J. Natl. Med. Assoc. 69:145-47 (1977)). […] These findings were recapitulated with the small molecule NBI-77860 (Compound I). In adrenalectomized rats, Compound I has potent capability for lowering ACTH.
These findings were recapitulated with the small molecule NBI-77860. […] The duration of efficacy correlated with peak plasma concentrations, with a time course exceeding drug plasma exposure.
Fleck et al. also report the effects of CRF1 receptor antagonists differentiated by their dissociation half-life on plasma ACTH levels in adrenalectomized rats; namely, NBI 30775, NBI 34041 and NBI 35965. […] After a longer duration, a clear difference emerged between NBI 35965 and the other two ligands. The ACTH level returned to the vehicle level by 2 hr for NBI 35965 (FIG. 3C), whereas the response was sustained for 4-6 hr for NBI 30775 and NBI 34041 (FIGS. 3A and 3B).

[2] = test system: 17-OHP and ACTH levels (HPA axis hormones); assay: Phase 1 single-dose clinical study in adult females with classical congenital adrenal hyperplasia; assay type: in vivo, human; conditions: adult female classical CAH patients, single bedtime doses
Experimental: The study was a single-blind, placebo-controlled, single center, fixed-sequence, single-dose clinical trial in adult female classical CAH patients.
The subjects' usual morning dose of concurrent steroidal treatment was delayed until after the 16-hour postdose blood samples were collected (i.e., until approximately 1400 h).
The PD endpoints for this study included the HPA axis biomarkers of interest in this patient population; namely, 17-hydroxyprogesterone (17-OHP; as the primary PD endpoint), adrenocorticotropic hormone (ACTH), androstenedione, testosterone, and serum cortisol levels. The initial analysis of PD variables was an examination of the grouped subject data for each biomarker, expressed as a mean percent change from predose levels for the two active dosing conditions relative to the placebo condition.
This responder analysis yielded a sizeable responder rate of 50% in the study (none of these subjects were responders during the initial placebo treatment period).

[3] = test system: HPA axis response (ACTH) produced by metyrapone; assay: Pharmacodynamic effect of single oral doses on HPA axis response produced by metyrapone in humans; assay type: in vivo; conditions: human, metyrapone 0.04 g/kg
CRF1 receptor = molecular target: T1, CRF1 receptor (Homo sapiens, UniProt P34998); conditions: as reported in Fleck et al., cited from earlier work; for Ki: Ki=k−1/k1, read-out: Kinetic Ki; for Dissociation t1/2: t1/2=0.693/k−1
T1 sequence (P34998 24-415): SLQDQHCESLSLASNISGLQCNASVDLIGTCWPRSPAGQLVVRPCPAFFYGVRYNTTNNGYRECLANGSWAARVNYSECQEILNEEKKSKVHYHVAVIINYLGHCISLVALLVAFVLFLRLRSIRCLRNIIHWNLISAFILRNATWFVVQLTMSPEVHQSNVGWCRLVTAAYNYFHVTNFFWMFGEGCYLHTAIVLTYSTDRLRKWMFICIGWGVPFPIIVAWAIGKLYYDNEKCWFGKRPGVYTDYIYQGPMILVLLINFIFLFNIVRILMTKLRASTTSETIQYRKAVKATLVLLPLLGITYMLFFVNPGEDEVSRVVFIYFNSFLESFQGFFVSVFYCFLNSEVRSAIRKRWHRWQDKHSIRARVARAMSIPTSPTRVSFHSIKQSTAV

[4] = test system: plasma ACTH in adrenalectomized (ADX) rats; conditions: Fleck et al., cited from earlier work; for effect on plasma ACTH, acute: highest dose 10 mg/kg, 1 hr post-injection, FIG. 3A-C
[5] = Table 2 rate constant used for t1/2

Row | SMILES | Ki (CRF1 receptor) | Rate constant (association k1 or dissociation k−1) (CRF1 receptor; [5]) | Rate constant (association k1 or dissociation k−1) (CRF1 receptor; association rate constant) | Dissociation t1/2 (CRF1 receptor) | also measured
1 | CC[C@H](Nc1cc(C)nc2c(-c3ccc(OC)cc3C)c(C)nn12)c1nc(C)no1 [NBI-77860, 2,5-dimethyl-3-[2-methyl-4-(methyloxy)phenyl]-N-[(1S)-1-(3-methyl-1,2,4-oxadiazol-5-yl)propyl]pyrazolo[1,5-a]pyrimidin-7-amine] |  |  |  |  | duration of significant lowering of plasma ACTH levels [1]: up to 5 hours; effects on 17-OHP and ACTH, 300 mg dose compared with 600 mg dose [2]: nearly identical effects; ACTH AUC (30 min to 4 h) compared to placebo ([3]; single oral dose 10 mg): increase; ACTH AUC (2 h to 4 h) compared with placebo ([3]; single oral dose 10 mg): reduction was not seen; ACTH AUC (30 min to 4 h) compared to placebo ([3]; single oral dose 50 mg): non-significant reduction; ACTH AUC (2 h to 4 h) compared with placebo ([3]; single oral dose 50 mg): significant reduction; ACTH AUC (30 min to 4 h) compared to placebo ([3]; single oral dose 400 mg): significant reduction; ACTH AUC (2 h to 4 h) compared with placebo ([3]; single oral dose 400 mg): significant reduction
2 | CCCN(CC1CC1)c1nc(C)nc(Nc2c(Cl)cc(Cl)cc2Cl)c1Cl [NBI-27914] | 25 nM | 0.27 ± 0.07 min⁻¹ | 9.4 ± 3 10^6M^−1min^−1 | 2.6 min | 
3 | CC[C@H]1Cn2nc(-c3ccc(Cl)cc3Cl)c3nc(C)cc(c32)N1CC1CC1.CS(=O)(=O)O [NBI-35965] | 2.3 nM | 0.048 ± 0.005 min⁻¹ | 20 ± 2 10^6M^−1min^−1 | 16 min | time by which ACTH level returned to the vehicle level ([4]; 10 mg/kg): ≤ 2 h; effect on plasma ACTH, acute [4]: reduced ACTH acutely
4 | CCC(CC)Nc1c2c(nc3c(-c4ccc(OC)cc4Cl)c(C)nn13)CCC2 [ONO-2333Ms, 10-(2-chloro-4-methoxyphenyl)-11-methyl-N-(pentan-3-yl)-1,8,12-triazatricyclo[7.3.0.0^3,7] dodeca-2,7,9,11-tetraen-2-amine] | 15 nM | 0.063 ± 0.029 min⁻¹ | 4.4 ± 2.2 10^6M^−1min^−1 | 17 min | 
5 | CCCN(CCC)c1cc(C)nc2c(-c3cnc(N(C)C)cc3C)c(C)nn12 [NBI-30775, 5-[7-(dipropylamino)-2,5-dimethylpyrazolo[1,5-a]pyrimidin-3-yl]-N,N,4-trimethylpyridin-2-amine] |  | 0.0054 ± 0.0006 min⁻¹ | 14 ± 2.0 10^6M^−1min^−1 |  | effect on plasma ACTH, acute [4]: reduced ACTH acutely
6 | CCCCN(CC)c1nc(C)nc2c1c(C)c(C)n2-c1c(C)cc(C)cc1C [antalarmin, N-butyl-N-ethyl-2,5,6-trimethyl-7-(2,4,6-trimethylphenyl)pyrrolo[3,2-e]pyrimidin-4-amine] | 3.9 nM | 0.013 ± 0.002 min⁻¹ | 3.4 ± 0.6 10^6M^−1min^−1 | 53 min | 
7 | Cc1nnc2n1-c1ccc(Cl)cc1C(c1ccccc1)=NC2 [alprazolam] |  |  |  |  | ACTH AUC (30 min to 4 h) compared to placebo ([3]; single dose alprazolam 0.75 mg): significant reduction
8 | CCC(CC)Nc1cc(C)nc2c(-c3ccc(OC)cc3C)c(C)nn12 [DMP904] | 0.38 nM | 0.0072 ± 0.002 min⁻¹ | 18 ± 1 10^6M^−1min^−1 |  | 
9 | CCCC(CCC)N1CCn2nc(-c3ccc(Cl)cc3Cl)c3nc(C)cc1c32 [NBI-34041, 3-(2,4-dichlorophenyl)-9-(heptan-4-yl)-6-methyl-1,2,5,9-tetraazatricyclo[6.3.1.0^4,12] dodeca-2,4(12),5,7-tetraene] | 1.7 nM | 0.013 ± 0.002 min⁻¹ | 8.3 ± 2.0 10^6M^−1min^−1 | 53 min | effect on plasma ACTH, acute [4]: reduced ACTH acutely
10 | COCC(COC)Nc1nc(C)nc2c(-c3ccc(Cl)cc3Cl)c(C)nn12 [DMP696] | 9.5 nM | 0.095 ± 0.02 min⁻¹ | 7.7 ± 2 10^6M^−1min^−1 | 7.3 min | 
11 | CCC(CC)Oc1cc(C)nc(Oc2c(C)cc(C)cc2C)c1C [CP-316,311, 3,6-dimethyl-4-(pentan-3-yloxy)-2-(2,4,6-trimethylphenoxy) pyridine] | 12 nM | 0.17 ± 0.04 min⁻¹ | 13 ± 2 10^6M^−1min^−1 | 4.1 min | 
12 | CC[C@@H](C)Nc1nc(C)nc2c(-c3ccc(OC)nc3C)c(C)nn12 [pexacerfont, N-[(2R)-butan-2-yl]-8-(6-methoxy-2-methylpyridin-3-yl)-2,7-dimethylpyrazolo[1,5-a][1,3,5]triazin-4-amine] |  | 0.049 ± 0.001 min⁻¹ | 2.6 ± 0.1 10^6M^−1min^−1 | 14 min | 

— patent US11311544B2, “Treatment of congenital adrenal hyperplasia” (Neurocrine Biosciences, Inc., priority 2014, dated 2022)
